The values below are quoted from earlier work in US5643912A, “Pyrazinoic acid esters as anti-mycobacterium avium agents” (The Research Foundation of State University of NY, priority 1996, dated 1997).

Molecules are shown by their SMILES.

The series deals with Mycobacterium (M.) tuberculosis. The note with it: cited from earlier work.

Consider `NC(=O)c1cnccn1` [pyrazinamide], for which the resistance development entry is reported as “resistance develops quickly”.
